Measured values taken from patent US9612238B2 (priority 2011, dated 2017).
“Also recorded” adds a separate entry of the source.

Legend:
[1] = test system: cell surface PrP on N2a cells; assay type: cell-based
[2] = test system: cell surface PrP on LD9 cells; assay type: cell-based; conditions: 24 hours
RML prions = assay type: cell-based; conditions: for rebound of infectivity after treatment cessation (RML): 18 days post-infection, 6 days after treatment cessation; for infection of PK1 neuroblastoma cells by RML prions (PrPSc western blot): pretreated 3 days, treated 12 days after infection, 9 and 18 days post-infection
22L prions = assay type: cell-based; conditions: for rebound of infectivity after treatment cessation (22L): 18 days post-infection, 6 days after treatment cessation; for infection of PK1 neuroblastoma cells by 22L prions (PrPSc western blot): pretreated 3 days, treated 12 days after infection, 9 and 18 days post-infection
cell surface PrP = conditions: 1 μg/ml
[3] = test system: RML scrapie-infected PK1 cells; assay type: cell-based; conditions: 1 μg/ml PIPLC, 26 hours

CC[C@H]1CN2CCc3cc(OC)c(OC)cc3[C@@H]2C[C@@H]1C[C@H]1NCCc2cc(OC)c(OC)cc21 [Emetine]
reduction of cell surface PrP, confirmation by secondary screening [1]: active

CCCCCCCCCCCCCCCC[N+](C)(C)C [cetrimonium]
reduction of cell surface PrP, confirmation by secondary screening [1]: active

CC[C@@]1([C@@H]2O[C@@H]([C@H]3O[C@@](O)(CO)[C@H](C)C[C@@H]3C)C[C@@H]2C)CC[C@H]([C@]2(C)CC[C@]3(C[C@H](O)[C@@H](C)[C@@H]([C@@H](C)[C@@H](OC)[C@H](C)C(=O)O)O3)O2)O1 [Monensin]
reduction of cell surface PrP, confirmation by secondary screening [1]: active

C=CC[C@@H]1/C=C(\C)C[C@H](C)C[C@H](OC)[C@H]2O[C@@](O)(C(=O)C(=O)N3CCCC[C@H]3C(=O)O[C@H](/C(C)=C/[C@@H]3CC[C@@H](O)[C@H](OC)C3)[C@H](C)[C@@H](O)CC1=O)[C@H](C)C[C@@H]2OC [Tacrolimus]
reduction of PrP expression in the primary assay ([2]; 20 μM): 70% | reduction of cell surface PrP, confirmation by secondary screening [1]: confirmed | reduction of PrP in the secondary assay, IN Cell analyzer quantification ([1]; at 30 (unit not given)): 73% | reduction of PrP in the secondary assay, flow cytometry ([1]; at 30 (unit not given)): 75% | rebound of infectivity after treatment cessation (RML) (RML prions): no rebound of infectivity | infection of PK1 neuroblastoma cells by RML prions (PrPSc western blot) (RML prions): block infection | rebound of infectivity after treatment cessation (22L) (22L prions): no rebound of infectivity | infection of PK1 neuroblastoma cells by 22L prions (PrPSc western blot) (22L prions): block infection

CC[C@@H](C(=O)[C@@H](C)[C@@H](O)[C@H](C)CCc1ccc(C)c(O)c1C(=O)O)[C@H]1O[C@](CC)([C@H]2CC[C@](O)(CC)[C@H](C)O2)C[C@@H]1C [Lasalocid sodium]
reduction of cell surface PrP, confirmation by secondary screening [1]: confirmed; also recorded: active

COc1ccc(CCN2CCC(Nc3nc4ccccc4n3Cc3ccc(F)cc3)CC2)cc1 [Astemizole]
reduction of cell surface PrP, confirmation by secondary screening [1]: confirmed; also recorded: active | rebound of infectivity after treatment cessation (RML) (RML prions): no rebound of infectivity | infection of PK1 neuroblastoma cells by RML prions (PrPSc western blot) (RML prions): block infection | rebound of infectivity after treatment cessation (22L) (22L prions): no rebound of infectivity | infection of PK1 neuroblastoma cells by 22L prions (PrPSc western blot) (22L prions): block infection

C[C@H]1CCC/C=C/[C@@H]2C[C@H](O)C[C@H]2[C@H](O)/C=C/C(=O)O1 [BFA, Brefeldine A]
PrP expression, percentage of the DMSO control ([2]; 384-well screening plates): 0% | toxicity to LD9 cells (cell viability, CELLTITER-GLO) (LD9 cells): none of the tested doses of BFA were toxic

phosphatidylinositol phospholipase C [PIPLC]
cell surface PrP removed (cell surface PrP): approximately 50% | RI200 (reciprocal of the cell number required to give 200 spots) [3]: 5×10^−4 | inhibition of infection ([3]; from RI200 values): 85%
